Where “and” joins values, the source holds several entries; their conditions need not be identical. Identical values can stand only once.
Test system: Clostridium acetobutylicum strain ATCC 824
Test: Sequential batch transfer in 24-well culture plates (butanol, residual glucose, butanol yield and productivity)
Type: cell-based
Conditions: for Butanol: Experiment 1; for Residual glucose concentration: initial glucose 60 g/L
Procedure: Each well contained 1.5 mL of growth medium. Peptide was added to each well at the indicated concentration (0, 25, 50, and 100 nM). Every 24 hours fresh medium and peptide treatment were added to a new column of wells then 1.5 μL of the previous day culture was transferred to the new well. Wells were harvested for glucose and butanol analysis after 96 hours of growth. Transfers 1, 4, 7, 10, 13, 16, […].
Briefly, Clostridium spores were germinated in a suitable growth medium for 18-24 hours then […] was transferred to 1.5 mL of fresh medium in each of four wells on a 24-well culture plate. Three of the wells had been treated with 25 nM, 50 nM and 100 nM of peptide, respectively while the fourth well was untreated. Thereafter, every 24 hours […] of each subculture was transferred to 1.5 mL of fresh medium that contained the same peptide treatment or no treatment. Transfers of successive subcultures were done for 24 days, and each subculture was grown for 96 hours before being harvested. Culture supernatants were recovered following centrifugation and were analyzed for butanol and residual glucose concentrations. Determination of optimum peptide treatment levels was based on a graphical comparison of the concentration of butanol in each of the four culture wells for sequential transfers 1, 4, 7, 10, 13, 16, 19, 22 and 24.
Clostridium acetobutylicum strain ATCC 824 was used in all experiments and the growth medium used for sequential batch transfer, time course, and continuous culture experiments contained yeast extract, casamino acids, L-cysteine, L-asparagine, phosphate buffer, trace minerals, and 6% glucose. What are believed to be quorum-sensing peptides that were used in the experiments were chemically synthesized peptides SEQ ID NO: 143 (amino acid sequence: SYPGWSW) and SEQ ID NO: 144 (amino acid sequence: ILILISG). Routine growth of the bacteria as well as the sequential batch and time course experiments were conducted in a Form a Scientific Model 1029 anaerobic gas chamber at 32° C. Continuous cultures were performed at 32° C. using duplicate New Brunswick Scientific BioFlo 3000 apparati with a dilution rate of 0.01 volume per hour, 75 rpm agitation, and nitrogen gas sparging. Optical density of culture samples was measured at 600 nm in a Beckman DU 600 series spectrophotometer and glucose was analyzed using a YSI Model 2700 Select Biochemistry Analyzer with internal glucose calibration. Butanol concentrations were determined by measuring experimental and standard samples using a Varian Saturn 3 Gas Chromatograph/Mass Spectrometer and calculating butanol concentrations using standard curves.
(§1) Sequential batch transfer experiments were carried out in 24-well culture plates that contained 1.5 mL of medium per well. Peptide was added to each well at the indicated concentrations of 0 nM (control), 25 nM, 50 nM, or 100 nM. Every 24 hours, fresh medium and peptide treatments were added to a new column of wells. Then, 1.5 uL of the previous day culture was transferred to the new well. Wells were harvested for glucose and butanol analysis after 96 hours of growth; transfers 1, 4, 7, 10, 13, 16, 19, 22, and 24 were analyzed. Two representative experiments are shown in Tables 30 and 31 and FIGS. 14 and 15.
as §1, with “32” for “30”, “33” for “31”, “16” for “14”, “17.” for “15.”

[1] = 50 nM, transfer 10, first experiment, after 96 hours of culture
[2] = 50 nM, transfer 13, first experiment, after 96 hours of culture
[3] = 50 nM, transfer 16, first experiment, after 96 hours of culture
[4] = 50 nM, transfer 19, first experiment, after 96 hours of culture
[5] = 50 nM, transfer 22, first experiment, after 96 hours of culture
[6] = 50 nM, transfer 24, first experiment, after 96 hours of culture
[7] = 100 nM peptide, transfer 1, after 96 hours of culture, Expt. 2 (repeat)
[8] = 100 nM peptide, transfer 4, after 96 hours of culture, Expt. 2 (repeat)
[9] = 100 nM peptide, transfer 7, after 96 hours of culture, Expt. 2 (repeat)
[10] = 100 nM peptide, transfer 10, after 96 hours of culture, Expt. 2 (repeat)
[11] = 100 nM peptide, transfer 13, after 96 hours of culture, Expt. 2 (repeat)
[12] = 100 nM peptide, transfer 16, after 96 hours of culture, Expt. 2 (repeat)
[13] = 100 nM peptide, transfer 19, after 96 hours of culture, Expt. 2 (repeat)
[14] = 100 nM peptide, transfer 22, after 96 hours of culture, Expt. 2 (repeat)
[15] = 100 nM peptide, transfer 24, after 96 hours of culture, Expt. 2 (repeat)
[16] = 100 nM, transfer 1, first experiment, after 96 hours of culture
[17] = 100 nM, transfer 4, first experiment, after 96 hours of culture
[18] = 100 nM, transfer 7, first experiment, after 96 hours of culture
[19] = 100 nM, transfer 10, first experiment, after 96 hours of culture
[20] = 100 nM, transfer 13, first experiment, after 96 hours of culture
[21] = 100 nM, transfer 16, first experiment, after 96 hours of culture
[22] = 100 nM, transfer 19, first experiment, after 96 hours of culture
[23] = 100 nM, transfer 22, first experiment, after 96 hours of culture
[24] = 100 nM, transfer 24, first experiment, after 96 hours of culture
[25] = BP110517 first experiment, 25 nM, transfers 19, 22 and 24
[26] = BP110517 first experiment, 50 nM, transfer 10

SYPGWSW [peptide SEQ ID NO: 143]
Butanol (50 nM, transfer 10, after 96 hours of culture, listed as BP110517): 13.7 g/L and 13.66 g/L | Butanol productivity [1]: 0.14 g butanol/L-h | Butanol yield [1]: 0.23 g butanol/g/glucose | Residual glucose concentration [1]: 0.1 g/L | Butanol (50 nM, transfer 13, after 96 hours of culture): 10.28 g/L | Butanol productivity [2]: 0.11 g butanol/L-h | Butanol yield [2]: 0.17 g butanol/g/glucose | Residual glucose concentration [2]: 0.1 g/L | Butanol (50 nM, transfer 16, after 96 hours of culture): 10.95 g/L | Butanol productivity [3]: 0.11 g butanol/L-h | Butanol yield [3]: 0.18 g butanol/g/glucose | Residual glucose concentration [3]: 0.1 g/L | Butanol (50 nM, transfer 19, after 96 hours of culture): 3.96 g/L | Butanol productivity [4]: 0.04 g butanol/L-h | Butanol yield [4]: 0.07 g butanol/g/glucose | Residual glucose concentration [4]: 47.6 g/L | Butanol (50 nM, transfer 22, after 96 hours of culture): 5.35 g/L | Butanol productivity [5]: 0.06 g butanol/L-h | Butanol yield [5]: 0.09 g butanol/g/glucose | Residual glucose concentration [5]: 45.9 g/L | Butanol (50 nM, transfer 24, after 96 hours of culture): 4.70 g/L | Butanol productivity [6]: 0.05 g butanol/L-h | Butanol yield [6]: 0.08 g butanol/g/glucose | Residual glucose concentration [6]: 50.2 g/L | Butanol concentration [7]: 0.62 g/L | Butanol productivity [7]: 0.01 g butanol/L-h | Butanol yield [7]: 0.01 g butanol/g/glucose | Residual glucose concentration [7]: 55.6 g/L | Butanol concentration [8]: 1.50 g/L | Butanol productivity [8]: 0.02 g butanol/L-h | Butanol yield [8]: 0.03 g butanol/g/glucose | Residual glucose concentration [8]: 49.3 g/L | Butanol concentration [9]: 4.10 g/L | Butanol productivity [9]: 0.04 g butanol/L-h | Butanol yield [9]: 0.07 g butanol/g/glucose | Residual glucose concentration [9]: 0.1 g/L | Butanol concentration [10]: 7.37 g/L | Butanol productivity [10]: 0.08 g butanol/L-h | Butanol yield [10]: 0.13 g butanol/g/glucose | Residual glucose concentration [10]: 0.1 g/L | Butanol concentration [11]: 5.60 g/L | Butanol productivity [11]: 0.06 g butanol/L-h | Butanol yield [11]: 0.10 g butanol/g/glucose | Residual glucose concentration [11]: 0.1 g/L | Butanol concentration [12]: 7.51 g/L | Butanol productivity [12]: 0.08 g butanol/L-h | Butanol yield [12]: 0.13 g butanol/g/glucose | Residual glucose concentration [12]: 0.1 g/L | Butanol concentration [13]: 4.03 g/L | Butanol productivity [13]: 0.04 g butanol/L-h | Butanol yield [13]: 0.07 g butanol/g/glucose | Residual glucose concentration [13]: 0.1 g/L | Butanol concentration [14]: 5.05 g/L | Butanol productivity [14]: 0.05 g butanol/L-h | Butanol yield [14]: 0.09 g butanol/g/glucose | Residual glucose concentration [14]: 0.1 g/L | Butanol concentration [15]: 3.42 g/L | Butanol productivity [15]: 0.04 g butanol/L-h | Butanol yield [15]: 0.06 g butanol/g/glucose | Residual glucose concentration [15]: 0.1 g/L | Butanol (100 nM, transfer 1, after 96 hours of culture): 1.14 g/L | Butanol productivity [16]: 0.01 g butanol/L-h | Butanol yield [16]: 0.02 g butanol/g/glucose | Residual glucose concentration [16]: 48.3 g/L | Butanol (100 nM, transfer 4, after 96 hours of culture): 6.97 g/L | Butanol productivity [17]: 0.07 g butanol/L-h | Butanol yield [17]: 0.12 g butanol/g/glucose | Residual glucose concentration [17]: 0.1 g/L | Butanol (100 nM, transfer 7, after 96 hours of culture): 7.33 g/L | Butanol productivity [18]: 0.08 g butanol/L-h | Butanol yield [18]: 0.12 g butanol/g/glucose | Residual glucose concentration [18]: 0.1 g/L | Butanol (100 nM, transfer 10, after 96 hours of culture): 11.33 g/L | Butanol productivity [19]: 0.12 g butanol/L-h | Butanol yield [19]: 0.19 g butanol/g/glucose | Residual glucose concentration [19]: 0.1 g/L | Butanol (100 nM, transfer 13, after 96 hours of culture): 7.22 g/L | Butanol productivity [20]: 0.08 g butanol/L-h | Butanol yield [20]: 0.12 g butanol/g/glucose | Residual glucose concentration [20]: 0.1 g/L | Butanol (100 nM, transfer 16, after 96 hours of culture): 9.59 g/L | Butanol productivity [21]: 0.10 g butanol/L-h | Butanol yield [21]: 0.16 g butanol/g/glucose | Residual glucose concentration [21]: 0.1 g/L | Butanol (100 nM, transfer 19, after 96 hours of culture): 4.76 g/L | Butanol productivity [22]: 0.05 g butanol/L-h | Butanol yield [22]: 0.08 g butanol/g/glucose | Residual glucose concentration [22]: 0.1 g/L | Butanol (100 nM, transfer 22, after 96 hours of culture): 6.85 g/L | Butanol productivity [23]: 0.07 g butanol/L-h | Butanol yield [23]: 0.11 g butanol/g/glucose | Residual glucose concentration [23]: 0.1 g/L | Butanol (100 nM, transfer 24, after 96 hours of culture): 4.67 g/L | Butanol productivity [24]: 0.05 g butanol/L-h | Butanol yield [24]: 0.08 g butanol/g/glucose | Residual glucose concentration [24]: 0.1 g/L | Transfers over which butanol production was enhanced (BP110517, sequential batch cultures (summary of findings)): transfer 4 through transfer 19 | Butanol yield and productivity greater than untreated control (BP110517 first experiment, 25 nM, transfer 4): 23% | Butanol yield and productivity greater than untreated control (BP110517 first experiment, 25 nM, transfer 16): 24% | Decrease of butanol concentration below that of controls [25]: 20% | Reduction in glucose utilization [25]: 80% | Butanol yield and productivity greater than untreated control (BP110517 first experiment, 50 nM, transfer 4): 20% | Butanol productivity [26]: 0.14 g butanol/1-hour | Butanol yield [26]: 0.23 g butanol/g glucose | Butanol yield and productivity greater than untreated control [26]: 46% | Butanol yield and productivity greater than untreated control (BP110517 first experiment, 50 nM, transfer 16): 16% | Effect on butanol production versus untreated control (BP110517 first experiment, 100 nM, except at transfer 10): generally resulted in decreased butanol production, or no difference from the untreated control | Glucose consumption (BP110517 first experiment, all treated and untreated cultures, transfer 4 through transfer 16): ~100% | Increase in butanol over untreated control (SEQ ID NO: 143 first experiment, 25 nM, transfer 4): ~25% | Increase in butanol over untreated control (SEQ ID NO: 143 first experiment, 25 nM, transfer 4, listed as BP110517): 23% | Increase in butanol over untreated control (SEQ ID NO: 143 first experiment, 25 nM, transfer 16): 24% | Increase in butanol over untreated control (SEQ ID NO: 143 first experiment, 50 nM, transfer 4): ~25% | Increase in butanol over untreated control (SEQ ID NO: 143 first experiment, 50 nM, transfer 4, listed as BP110517): 20% | Increase in butanol over untreated control (SEQ ID NO: 143 first experiment, 50 nM, transfer 10): 46% | Increase in butanol over untreated control (SEQ ID NO: 143 first experiment, 50 nM, transfer 16): 16% | Increase in butanol over untreated control (SEQ ID NO: 143 first experiment, 100 nM, transfer 10): 21% | Increase in butanol over untreated control (SEQ ID NO: 143 second experiment, 50 nM, transfer 10): more than 200% | Increase in butanol over untreated control (SEQ ID NO: 143 second experiment, 50 nM, transfer 10, listed as BP110517): 223% | Increase in butanol over untreated control (SEQ ID NO: 143 second experiment, 50 nM, transfer 13): 289% | Increase in butanol over untreated control (SEQ ID NO: 143 second experiment, 50 nM, transfer 16): 170% | Increase in butanol over untreated control (SEQ ID NO: 143 second experiment, 100 nM, transfer 10): more than 200% | Effect on differentiation and butanol production (sequential and continuous cultures): inducer of differentiation and butanol production

Source: patent US20150031102A1, “METHODS AND COMPOSITIONS FOR ENHANCED PRODUCTION OF BUTANOL BY CLOSTRIDIA” (Butrolix LLC, priority 2012, published 2015)
